Test results: patent publication US20180153995A1, “USE OF ANTIMICROBIAL POLYMERS FOR RE-SENSITIZATION OF MICROORGANISMS UPON EMERGENCE OF RESISTANCE TO ANTI-MICROBIAL AGENTS” (Technion Research & Development Foundation Limited, priority 2008, published 2018)
Several values for one entry are separate records, joined by “and”; a condition that tells them apart may be missing. Equal values may be shown once. Read-outs that look alike come from different tables or passages of the source.

Tests used:
[1] = system: S. maltophila 748; test: Antibiotic MIC by microdilution with or without sub-MIC polymer; assay type: cell-based, Stenotrophomonas maltophila
[2] = system: S. aureus 43300; test: as above; assay type: cell-based, Staphylococcus aureus
[3] = system: E. coli K-12 resistant wild type; assay type: cell-based, Escherichia coli; settings: E. coli AG100 (w.t.)
[4] = system: S. aureus 15819; test: Antibiotic MIC by microdilution with or without sub-MIC polymer; assay type: cell-based, Staphylococcus aureus; settings: S. aureus 15819
[5] = system: MRSA 15903; test: microbe, parasite or virus in culture; assay type: cell-based, Staphylococcus aureus
Method in brief: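 Values are FIC indexes, summing each agent's MIC in combination divided by its MIC alone, for MRSA 15903. Interpretation: <0.5 clear re-sensitization, 0.5 to 4 marginal or none, >4 antagonistic.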

[6] = system: S. aureus 15877; test: Antibiotic MIC by microdilution with or without sub-MIC polymer; assay type: cell-based, Staphylococcus aureus
[7] = system: E. coli K-12 efflux knockout mutant; assay type: cell-based, Escherichia coli; settings: E. coli AG100A (efflux−)
Method in brief: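 Broth microdilution, inocula 10^5 bacteria/ml, 24 h at 37 °C. Growth read as OD620 against calibration standards.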

[8] = system: E. coli 16329; assay type: cell-based, Escherichia coli
Method in brief: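 Bacterial suspensions (100 μl) were added to 100 μl of culture medium carrying 2-fold serially diluted antibiotic together with a fraction of the polymer's MIC, or to plain medium as control. Plates were incubated 24 hours at 37° C, and proliferation was read at 620 nm against calibration standards. Starting inoculum was 10^5 bacteria per ml.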

[9] = system: E. coli 14384; test: Antibiotic MIC by microdilution with or without sub-MIC polymer; assay type: cell-based, Escherichia coli
Method in brief: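 Optical density at 620 nm, calibrated against standards, measured growth inhibition after 24 hours at 37° C. Inocula were 10^5 bacteria per ml, and antibiotic was serially diluted 2-fold with or without […].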

[10] = system: E. coli 14182; test: as above; assay type: cell-based, Escherichia coli
[11] = system: S. aureus 43300; test: as above; assay type: cell-based, Staphylococcus aureus; remark: listed apart in the source
[12] = +½ MIC (3.12 μM) C12K(KNC12K)3NH2
[13] = +⅓ MIC (2.1 μM) C12K(KNC12K)3NH2
[14] = +¼ MIC (1.6 μM) C12(5-ene)KKNC12KNH2
[15] = +⅓ MIC (2.1 μM) C12(5-ene)KKNC12KNH2
[16] = polymer at ¼ of its MIC (Table 16)
[17] = polymer at ½ of its MIC (Table 16)
[18] = polymer at ⅓ of its MIC (Table 16)
[19] = the OAK at ¼ of its MIC (Table 17)
[20] = the OAK at ½ of its MIC (Table 17)
[21] = the OAK at ⅓ of its MIC (Table 17)
[22] = +½ MIC (3.12 μM) C12(5-ene)KKNC12KNH2

Compound: CCN1CCN(C(=O)N[C@@H](C(=O)N[C@@H]2C(=O)N3[C@@H]2SC(C)(C)[C@@H]3C(=O)O)c2ccccc2)C(=O)C1=O [Piperacillin, piperacillin]
- Antibiotic MIC ([1]; +¼ MIC (1.6 μM) C12K(KNC12K)3NH2): 32 µg/mL
- Antibiotic MIC [1, 12]: 32 µg/mL
- Antibiotic MIC [1, 13]: 32 µg/mL
- Antibiotic MIC ([1]; no polymer (None), Table 13): 32 µg/mL
- Antibiotic MIC [2, 14]: 4 µg/mL
- Antibiotic MIC ([2]; +¼ MIC (1.6 μM) C12K(KNC12K)2NH2): 32 µg/mL
- Antibiotic MIC ([2]; +¼ MIC (1.6 μM) C12KKNC12KNH2): 32 µg/mL
- Antibiotic MIC ([2]; +¼ MIC (1.6 μM) C16(9-ene)KKNC12KNH2): 4 µg/mL
- Antibiotic MIC ([2]; +½ MIC (3.12 μM) C12KKNC12KNH2): 8 µg/mL
- Antibiotic MIC ([2]; +½ MIC (3.12 μM) C16(9-ene)KKNC12KNH2): 2 µg/mL
- Antibiotic MIC [2, 15]: 4 µg/mL
- Antibiotic MIC ([2]; +⅓ MIC (2.1 μM) C12K(KNC12K)2NH2): 32 µg/mL
- Antibiotic MIC ([2]; +⅓ MIC (2.1 μM) C12KKNC12KNH2): 16 µg/mL
- Antibiotic MIC ([2]; +⅓ MIC (2.1 μM) C16(9-ene)KKNC12KNH2): 4 µg/mL
- Antibiotic MIC, None ([3]; antibiotic alone (Table 16)): 2 µg/mL
- Antibiotic MIC, None ([3]; antibiotic alone (Table 17)): 2 µg/mL
- Antibiotic MIC in presence of C12K(NC8K)7NH2 (SEQ ID NO: 4), +¼ MIC [3, 16]: 2 µg/mL
- Antibiotic MIC in presence of C12K(NC8K)7NH2 (SEQ ID NO: 4), +½ MIC [3, 17]: 0.5 µg/mL
- Antibiotic MIC in presence of C12K(NC8K)7NH2 (SEQ ID NO: 4), +⅓ MIC [3, 18]: 1 µg/mL
- Antibiotic MIC in presence of the OAK, +¼ MIC [3, 19]: 1 to 2 µg/mL
- Antibiotic MIC in presence of the OAK, +½ MIC [3, 20]: 0.5 µg/mL
- Antibiotic MIC in presence of the OAK, +⅓ MIC [3, 21]: 1 µg/mL
- Antibiotic MIC [4, 14]: 8 to 16 µg/mL
- Antibiotic MIC ([4]; +¼ MIC (1.6 μM) C12KKNC12KNH2): 16 µg/mL
- Antibiotic MIC [4, 22]: 4 µg/mL
- Antibiotic MIC [4, 12]: 4 µg/mL
- Antibiotic MIC ([4]; +½ MIC (3.12 μM) C12KKNC12KNH2): 4 µg/mL
- Antibiotic MIC [4, 15]: 8 µg/mL
- Antibiotic MIC [4, 13]: 4 µg/mL
- Antibiotic MIC ([4]; +⅓ MIC (2.1 μM) C12KKNC12KNH2): 8 to 16 µg/mL
- Antibiotic MIC ([4]; no polymer (None), Table 8): 16 µg/mL
- Antibiotic MIC ([4]; no polymer (None), Table 11): 32 µg/mL
- Antibiotic MIC ([4]; no polymer (None), Table 13): 32 µg/mL
- MIC ([5]; MRSA 15903, +¼ polymer MIC (1.6 μM) NC12(KNC12K)2NH2): 64 µg/mL
- MIC ([5]; MRSA 15903, +½ polymer MIC (3.1 μM) NC12(KNC12K)2NH2): 1 µg/mL
- MIC ([5]; MRSA 15903, +⅓ polymer MIC (2.1 μM) NC12(KNC12K)2NH2): 4 µg/mL
- MIC ([5]; S. aureus CI-15903, +polymer (¼ MIC) C12(5-ene)KKNC12KNH2): 32 µg/mL
- MIC ([5]; S. aureus CI-15903, +polymer (½ MIC) C12(5-ene)KKNC12KNH2): 0.25 µg/mL
- MIC ([5]; S. aureus CI-15903, +polymer (⅓ MIC) C12(5-ene)KKNC12KNH2): 4 µg/mL
- MIC ([5]; S. aureus CI-15903, alone): 256 µg/mL
- MIC ([5]; Staphylococcus aureus, MRSA, 24 h): 256 µg/mL
- Antibiotic MIC [6, 14]: 16 to 32 µg/mL
- Antibiotic MIC [6, 22]: 8 to 16 µg/mL
- Antibiotic MIC [6, 15]: 16 to 32 µg/mL
- Antibiotic MIC ([6]; no polymer (None), Table 8): 16 to 32 µg/mL
- Antibiotic MIC, None ([7]; antibiotic alone (Table 16)): <0.13 µg/mL
- Antibiotic MIC, None ([7]; antibiotic alone (Table 17)): <0.13 µg/mL
- Antibiotic MIC in presence of C12K(NC8K)7NH2 (SEQ ID NO: 4), +¼ MIC [7, 16]: <0.13 µg/mL
- Antibiotic MIC in presence of C12K(NC8K)7NH2 (SEQ ID NO: 4), +½ MIC [7, 17]: <0.13 µg/mL
- Antibiotic MIC in presence of C12K(NC8K)7NH2 (SEQ ID NO: 4), +⅓ MIC [7, 18]: <0.13 µg/mL
- Antibiotic MIC in presence of the OAK, +¼ MIC [7, 19]: <0.13 µg/mL
- Antibiotic MIC in presence of the OAK, +½ MIC [7, 20]: <0.13 µg/mL
- Antibiotic MIC in presence of the OAK, +⅓ MIC [7, 21]: <0.13 µg/mL
- Antibiotic MIC [8]: 128 to 256 µg/mL
- Antibiotic MIC ([8]; E. coli 16329, no polymer (None), Table 10): 256 µg/mL
- Antibiotic MIC ([8]; E. coli U-16329, +¼ MIC C12K(NC8K)5NH2): 256 µg/mL
- Antibiotic MIC ([8]; E. coli U-16329, +½ MIC C12K(NC8K)5NH2): 128 µg/mL
- Antibiotic MIC ([8]; E. coli U-16329, +⅓ MIC C12K(NC8K)5NH2): 128 to 256 µg/mL
- Antibiotic MIC, None ([8]; E. coli U-16329, antibiotic alone (Table 15)): 256 µg/mL
- Antibiotic MIC ([8]; E. coli U-16329, no polymer (None), Table 14): 256 µg/mL
- Antibiotic MIC in presence of C12K(NC8K)7NH2 (SEQ ID NO: 4), +¼ MIC ([8]; E. coli U-16329, polymer at ¼ of its MIC): 128 to 256 µg/mL
- Antibiotic MIC in presence of C12K(NC8K)7NH2 (SEQ ID NO: 4), +½ MIC ([8]; E. coli U-16329, polymer at ½ of its MIC): 64 to 128 µg/mL
- Antibiotic MIC in presence of C12K(NC8K)7NH2 (SEQ ID NO: 4), +⅓ MIC ([8]; E. coli U-16329, polymer at ⅓ of its MIC): 128 to 256 µg/mL
- Antibiotic MIC [9]: 256 µg/mL and 256 to 512 µg/mL
- Antibiotic MIC ([9]; E. coli 14384, +½ MIC C12K(NC8K)5NH2): 256 to 512 µg/mL
- Antibiotic MIC, None ([9]; E. coli 14384, antibiotic alone (Table 15)): 256 to 512 µg/mL
- Antibiotic MIC ([9]; E. coli 14384, no polymer (None), Table 9): 256 to 512 µg/mL
- Antibiotic MIC ([9]; E. coli 14384, no polymer (None), Table 14): 256 to 512 µg/mL
- Antibiotic MIC in presence of C12K(NC8K)7NH2 (SEQ ID NO: 4), +¼ MIC ([9]; E. coli 14384, polymer at ¼ of its MIC): 256 to 512 µg/mL
- Antibiotic MIC in presence of C12K(NC8K)7NH2 (SEQ ID NO: 4), +½ MIC ([9]; E. coli 14384, polymer at ½ of its MIC): 64 to 128 µg/mL
- Antibiotic MIC in presence of C12K(NC8K)7NH2 (SEQ ID NO: 4), +⅓ MIC ([9]; E. coli 14384, polymer at ⅓ of its MIC): 256 to 512 µg/mL
- Antibiotic MIC ([10]; +¼ MIC C12K(NC8K)5NH2): >512 µg/mL
- Antibiotic MIC ([10]; +½ MIC C12K(NC8K)5NH2): 512 µg/mL
- Antibiotic MIC ([10]; +⅓ MIC C12K(NC8K)5NH2): >512 µg/mL
- Antibiotic MIC, None ([10]; antibiotic alone (Table 15)): >512 µg/mL
- Antibiotic MIC ([10]; no polymer (None), Table 14): >512 µg/mL
- Antibiotic MIC in presence of C12K(NC8K)7NH2 (SEQ ID NO: 4), +¼ MIC ([10]; polymer at ¼ of its MIC): >512 µg/mL
- Antibiotic MIC in presence of C12K(NC8K)7NH2 (SEQ ID NO: 4), +½ MIC ([10]; polymer at ½ of its MIC): 64 µg/mL
- Antibiotic MIC in presence of C12K(NC8K)7NH2 (SEQ ID NO: 4), +⅓ MIC ([10]; polymer at ⅓ of its MIC): >512 µg/mL
- Antibiotic MIC ([11]; +¼ MIC (1.6 μM) C14(9-ene)KKNC12KNH2): 16 µg/mL
- Antibiotic MIC [11, 22]: 1 µg/mL
- Antibiotic MIC ([11]; +½ MIC (3.12 μM) C14(9-ene)KKNC12KNH2): 16 µg/mL
- Antibiotic MIC ([11]; +⅓ MIC (2.1 μM) C14(9-ene)KKNC12KNH2): 16 µg/mL
- Antibiotic MIC ([11]; no polymer (None), Table 8): 16 µg/mL
- Antibiotic MIC ([11]; no polymer (None), Table 9): 16 µg/mL
- Antibiotic MIC ([11]; no polymer (None), Table 10): 16 µg/mL
- Antibiotic MIC ([11]; no polymer (None), Table 11): 32 µg/mL
- Antibiotic MIC ([11]; no polymer (None), Table 12): 32 µg/mL
